Test results taken from US20080160006A1, “Nutrient Medium for Maintaining Neural Cells in Injured Nervous System” (priority 2001, published 2008).

Columns and labels:
[1] = tested on: human cortical brain cells (neurons vs glia); test: Adult human cortical brain cells cultured in B27/Neurobasal A, immunostained for neurofilament and GFAP; type: cell-based; settings: for % GFAP (mean ± S.D.) / % Neurofilament (mean ± S.D.): addition to B27/Neurobasal A, after 6 days
Text: (§1) GENERAL METHODS. Brain tissue was ethically obtained by informed consent from patients before surgery under protocols approved by the Springfield Committee for Research on Human Subjects and the UC Irvine IRB. […] Rather than using aspiration to remove all tissue, slices of tissue 1-3 mm thick were obtained from cortical access ports or tissue that was marginal to the lesion. Use of electrocautery was kept to a minimum to reduce oxyradicals and other neuron damage. […] Hibernate A contains D-glucose, pyruvate, balanced salts, amino acids, and vitamins. B27 contains 5 antioxidants and 15 other components. […] After transport on ice to a laminar flow sterile hood in the culture laboratory, meninges and white matter were removed from the tissue with a scalpel and forceps in a 35 mm dish in 2 ml transport medium. […] The cell suspension was enriched for neurons by centrifugation on a density gradient of Optiprep (Invitrogen). […] The diluted Optiprep was further diluted with transport medium (v/v) to make a gradient containing 4 steps of 1 ml in a 15 ml centrifuge tube: bottom (0.35:0.65), 0.25:0.75, 0.2:0.8, top (0.15:0.85). Up to 6 ml of cell suspension was layered over the Optiprep step gradient. […] Cells were plated at a density of 320/mm^2 onto glass coverslips coated with polylysine as previously described. Cells were cultured in Neurobasal™ A medium (Invitrogen) with 2 percent B27, 5 ng/ml FGF2 (basic human recombinant fibroblast growth factor, Invitrogen) and 0.5 mM glutamine in a humidified atmosphere of 9 percent O2, and 5 percent CO2 (Forma, Marietta, Ohio). […] EGF (20 ng/ml; murine, Invitrogen) and NT3 (100 ng/ml; recombinant, Regeneron) were added as indicated from 500× stock solutions in 1 percent BSA/PBS. Half of the medium was replaced with fresh medium every 3-4 days.
For immunocytology, cultures were rinsed twice in warm PBS and fixed for 10 minutes in 4 percent paraformaldehyde in PBS. After rinsing twice with PBS, cells for GFAP staining were postfixed for 20 minutes in acetic acid/ethanol (1:9, v/v) before rinsing again with PBS. Non-specific sites were blocked, and cells were permeabilized for 5 minutes in 5 percent normal goat serum, and 0.5 percent Triton X-100. Cells were incubated with primary antibodies for 1 hour at 22° C. in 5 percent goat serum, and 0.05 percent Triton as follows: mouse anti-neurofilament 200 (1:40, Sigma) with rabbit anti-cow GFAP (1:2000, Dako), or mouse anti-MAP2 (1:250, Boeringer-Mannheim) with rabbit anti-tau (1:2000). After rinsing four times with PBS, cells were incubated 1 hour at 22° C. with a rhodamine-conjugate of goat anti-rabbit IgG (heavy+light chain, 1:500, Tago) together with a cy2-conjugate of goat anti-mouse IgG (heavy+light chain, 1:100, Jackson). After rinsing four times in PBS, coverslips were mounted with Aquamount and imaged through a Nikon 60×/1.4 objective using a Spot cooled CCD camera (Diagnostic Instruments).
Human cortical brain tissue was obtained for culture from eleven consecutive surgical cases, including seven tumor cases, three cases of epilepsy, and one case of suprabulbar palsy. Patients ranged in age from 41 to 70 years.
Neuronal Characteristics of Isolated Cells. Cytoskeletal components were used as specific markers to distinguish neurons from glia. Microtubule associated proteins, MAP2 and tau, are generally associated with somatodendritic and axonal regions of neurons, respectively. Neurofilament 200 is a common intermediate filament protein restricted to neurons, and GFAP is restricted to astroglia. All preparations were immunostained for at least one of these markers.

human neurons = test: Survival of human neurons versus FGF2 concentration with or without DHEAS (FIG. 1); type: cell-based
Text: as §1

[2] = surgical sample 1, glioma r. temporal, 46 M
[3] = surgical sample 2, tumor r. temporal, 69 M

## FGF2: basic human recombinant fibroblast growth factor, Invitrogen
[1]; [2]
  % GFAP (mean ± S.D.): 30 ± 7%
  % Neurofilament (mean ± S.D.): 67±7%
[1]; [3]
  % GFAP (mean ± S.D.): > 80%
  % Neurofilament (mean ± S.D.): < 10%
[1]; surgical sample 3, glioma l. frontal, 41 M
  % Neurofilament (mean ± S.D.): 84 ± 8%
[1]; surgical sample 4, epilepsy l. superior temp. gyrus, 33 F
  % Neurofilament (mean ± S.D.): 16 ± 5%
[1]; surgical sample 5, meningioma r. temporal, 70 µM
  % Neurofilament (mean ± S.D.): 17 ± 10%

## C[C@]12CC[C@H](OS(=O)(=O)O)CC1=CC[C@@H]1[C@@H]2CC[C@]2(C)C(=O)CC[C@@H]12 [DHEAS, dehydroepiandrosterone 3-sulphate]
Human neurons; DHEAS at 10 μg/ml
  lowering of the FGF2 ED50 for survival: 10 fold
Human neurons; DHEAS at 1 and 3 μg/ml, data not shown
  survival at intermediate DHEAS concentrations: intermediate survival between 0 and 10 μg/ml
Human neurons; lower FGF2 concentrations
  survival with FGF2 at lower concentrations (FIG. 1): synergistic for survival with FGF2

## EGF: trophic factor EGF, murine, Invitrogen (NSYPGCPSSYDGYCLNGGVCMHIESLDSYTCNCVIGYSGDRCQTRDLRWWELR; Epidermal growth factor; UniProt P01132 977-1029, looked up)
[1]; added in addition to FGF2, sample 4
  survival of neurofilament positive cells versus FGF2 alone: no more efficacious
